Data reported in patent US7247706B2, “Double mutant alpha-7 nicotinic acetylcholine receptors” (Pharmacia & Upjohn Company, priority 1999, dated 2007).
Like-named read-outs stand apart in the source and are kept apart here.

Assays:
[1] = molecular target: T1, α7/5-HT3 Chimeric Ligand Gated Ion Channel (Homo sapiens, UniProt P36544, M226I/T225I); format: binding, human α7 / mouse 5-HT3; conditions: for IC50: read-out: Fitc-α-Bungoarotoxin Binding (30 nM) IC50
T1 construct: expressed in transfected cells
T1 sequence (P36544 with tags, fused parts or gaps T225I/M226I): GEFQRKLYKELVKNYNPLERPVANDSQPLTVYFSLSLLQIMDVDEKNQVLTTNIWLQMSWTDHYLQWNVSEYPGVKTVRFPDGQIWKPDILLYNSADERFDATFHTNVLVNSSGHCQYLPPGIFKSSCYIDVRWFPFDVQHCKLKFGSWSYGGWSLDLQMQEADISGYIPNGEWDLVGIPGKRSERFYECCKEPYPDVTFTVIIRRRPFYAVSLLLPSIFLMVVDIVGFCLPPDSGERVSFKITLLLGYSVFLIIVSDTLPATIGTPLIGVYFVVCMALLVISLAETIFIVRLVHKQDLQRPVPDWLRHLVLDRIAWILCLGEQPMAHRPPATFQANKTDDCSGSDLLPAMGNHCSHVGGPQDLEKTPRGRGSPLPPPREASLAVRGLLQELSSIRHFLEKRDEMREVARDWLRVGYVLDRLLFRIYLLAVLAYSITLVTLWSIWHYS

α7/5-HT3 channel = molecular target: T2, α7/5-HT3 channel (Homo sapiens, UniProt P36544, M226I/T225I); test: Calcium flux assay on FLIPR, agonist activity, α7/5-HT3-SHEP cells; format: cell-based, human α7 / mouse 5-HT3; conditions: for EC50: calcium flux
T2 construct: expressed in transfected cells
T2 sequence (P36544 with tags, fused parts or gaps T225I/M226I): as above
Experimental: The α7/5-HT3-SHEP or alternatively the human α7 nACHR double mutant SHEP (described below) cells were grown in minimal essential medium (MEM) containing nonessential amino acids supplemented with 10% fetal bovine serum, L-glutamine, 100 units/ml penicillin/streptomycin, 250 ng/ml fungizone, 400 μg/ml Hygromycin-B, and 800 μg/ml Geneticin. The cells were grown in a 37° C. incubator with 6% CO2. The α7/5-HT3-SHEP cells were trypsinized and plated in 96 well plates with dark side walls and clear bottoms (Corning # 3614) at density of […] cells per well two days before analysis. The cells were loaded in a 1:1 mixture of 2 mM Calcium Green-1, AM (Molecular Probes) prepared in anhydrous dimethylsulfoxide and 20% pluonic F-127 (Molecular Probes). This reagent was added directly to the growth medium of each well to achieve a final concentration of 2 μM of Calcium Green-1, AM. The cells were incubated in the dye for one hour at 37° C. and then washed with 4 cycles of Bio-Tek plate washer. Each cycle was programmed to wash each well with four times with either EBSS or MMEBSS. After the third cycle, the cells were allowed to incubate at 37° C. for at least ten minutes. After the fourth cycle final volume in each well was 100 μl. The cells were analyzed on FLIPR (Molecular Devices) for the change in fluorescence after the addition of a 100 μl of a 2× drug stock. FLIPR was set up to excite the dye with at 488 nanometers using 500 mW of power. A 0.5 second exposure was used to illuminate each well. Fluorescence emission was recorded above 525 nm. Fluorescence was detected using a F-stop set of either 2.0 or 1.2.
We compared the physiological Earles Balanced Salt Solution (EBBS) buffer and the special cell culture media (MMEBSS) in the Ca^++functional assay on FLIPR.
The special cell culture media, designated MMEBSS is comprised of 4 mM CaCl2, 0.8 mM MgSO4, 20 mM NaCl, 5.3 mM KCL, 5.6 mM D-Glucose, 120 mM N-Methyl-D-Glucosamine, 9 mM Tris base and 20 mM HEPES. A detailed description of the preparation of MMEBSS is provided below.

α7 nAChR [2] = molecular target: T3, α7 nAChR (Homo sapiens, UniProt P36544); conditions: endogenous α7 nACh receptor; cited from earlier work
T3 sequence (P36544 23-502): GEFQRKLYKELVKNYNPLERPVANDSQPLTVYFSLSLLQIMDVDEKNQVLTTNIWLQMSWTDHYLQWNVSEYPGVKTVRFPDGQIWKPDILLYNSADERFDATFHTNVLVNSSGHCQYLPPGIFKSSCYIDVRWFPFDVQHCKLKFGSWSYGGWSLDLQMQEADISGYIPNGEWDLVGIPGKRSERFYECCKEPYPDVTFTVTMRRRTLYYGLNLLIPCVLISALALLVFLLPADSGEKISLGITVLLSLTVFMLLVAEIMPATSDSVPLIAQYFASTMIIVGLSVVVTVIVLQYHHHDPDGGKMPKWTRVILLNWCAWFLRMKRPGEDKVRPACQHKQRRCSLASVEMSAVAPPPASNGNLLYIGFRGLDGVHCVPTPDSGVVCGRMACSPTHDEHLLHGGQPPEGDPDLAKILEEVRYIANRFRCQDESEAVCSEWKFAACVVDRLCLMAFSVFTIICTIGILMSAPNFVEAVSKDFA

[3] = molecular target: double mutant human α7 ligand gated ion channel (Homo sapiens, UniProt P36544, C241S/T230P); conditions: 100 M nicotine as printed
Chain of double mutant human α7 ligand gated ion channel (P36544 23-502 T230P/C241S): as the sequence (P36544 23-502) above, with T208P, C219S counted along it
Experimental: The cells were grown in a 37° C. incubator with 6% CO2. […] Each cycle was programmed to wash each well with four times with either EBSS or MMEBSS. […] A 0.5 second exposure was used to illuminate each well. Fluorescence was detected using a F-stop set of either 2.0 or 1.2.

α7 nAChR [4] = molecular target: T3, α7 nAChR; conditions: human receptor; cited from earlier work
chicken α7 nAChR = chicken α7 nAChR (Gallus gallus, UniProt P22770); conditions: chicken receptor; cited from earlier work
Chain of chicken α7 nAChR (P22770 23-502 limits assumed): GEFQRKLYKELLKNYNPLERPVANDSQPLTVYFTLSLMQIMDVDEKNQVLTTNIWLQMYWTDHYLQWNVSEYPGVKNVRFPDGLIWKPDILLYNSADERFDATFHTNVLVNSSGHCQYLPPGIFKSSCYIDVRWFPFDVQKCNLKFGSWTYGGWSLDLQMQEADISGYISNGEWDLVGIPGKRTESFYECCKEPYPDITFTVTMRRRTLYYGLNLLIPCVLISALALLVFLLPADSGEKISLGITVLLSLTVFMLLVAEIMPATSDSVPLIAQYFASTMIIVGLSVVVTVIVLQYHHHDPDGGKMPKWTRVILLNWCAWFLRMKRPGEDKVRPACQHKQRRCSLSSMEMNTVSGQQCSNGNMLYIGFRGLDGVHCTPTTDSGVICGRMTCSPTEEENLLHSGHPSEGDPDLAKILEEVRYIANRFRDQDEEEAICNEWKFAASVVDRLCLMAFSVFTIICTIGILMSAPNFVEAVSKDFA

SMILES: Clc1ccc([C@@H]2C[C@H]3CC[C@@H]2N3)cn1 (racemic) [(+/−) Epibatidine]
- IC50 [1]: 0.09 µM
- Ki ([1]; read-out: Ki, competition for Fl-btx binding): 0.09 µM
- EC50 (α7/5-HT3 channel; MMEBSS): 0.12 µM
- EC50 (α7 nAChR [2]): 2 µM

SMILES: CN1CCCC1c1cccnc1 (single isomer, unassigned; (-)) [(−) Nicotine]
- Competition of Fl-btx binding [1]: competes at all concentrations of Fl-btx
- Calcium response to agonist in physiological buffer (α7/5-HT3 channel; 100 μM, EBSS, FIG. 6): little calcium was detected
- Calcium response to agonist in special cell culture media (α7/5-HT3 channel; 100 μM, MMEBSS, FIG. 6): evoked a large increase in intracellular calcium
- Calcium influx [3]: induced a maximal calcium influx

SMILES: C[N+]1(C)CCN(c2ccccc2)CC1 [1,1-dimethyl-4-phenylpiperazinium]
- Agonist character (α7 nAChR [4]): full agonist
- Agonist character (chicken α7 nAChR): partial agonist

SMILES: Cc1cc([C@@H]2CCCN2C)on1 [ABT-418]
- IC50 [1]: 38 µM
- EC50 (α7/5-HT3 channel; MMEBSS): 27 µM
- EC50 (α7 nAChR [2]): 70 µM

SMILES: c1cncc(C2=NCCCC2)c1 [Anabaseine]
- EC50 (α7/5-HT3 channel; MMEBSS): 6.6 µM
- EC50 (α7 nAChR [2]): 6 µM

SMILES: COc1ccc(/C=C2\CCCN=C2c2cccnc2)c(OC)c1 [GTS-21]
- IC50 ([1]; 30 nM Fl-btx, whole cell): 16 µM
- EC50 (α7 nAChR [2]): 30 µM

SMILES: CNC1(C)C2CCC(C2)C1(C)C (stereo not shown) [Mecamylamine]
- IC50 [1]: > 300 µM

SMILES: CCN1C[C@]2(COC(=O)c3ccccc3N3C(=O)C[C@H](C)C3=O)CC[C@H](OC)[C@@]34[C@@H]5C[C@H]6[C@H](OC)[C@@H]5[C@](O)(C[C@@H]6OC)[C@](O)([C@@H](OC)[C@H]23)[C@@H]14 [Methyllcaconitine (MLA), Methyllcaconitine]
- IC50 [1]: 0.026 µM
